Data on 4 compounds can be found in patent US9862985B2, “Identification and susceptibility of microorganisms by species and strain” (SPECIFIC TECHNOLOGIES LLC, priority 2012, dated 2018).

Each structure is given as a SMILES string.

For assay [1], the system named is K. pneumoniae IS-007. Briefly: Colorimetric sensor array antibiotic susceptibility test on solid growth media. In kind it is cell-based. The settings on record: vs control without antibiotic. The text has this: (§1) To detect a microorganism by species and strain, a sample including the microorganism is placed in a container including culture medium and a colorimetric array, and the temporal response of the sensors to the metabolic products of the microorganism is monitored. Susceptibility can be assessed by inoculating a growth medium including a substance (e.g., an antibiotic) with a microorganism and monitoring the temporal response of the sensors while also monitoring the response of a control (e.g., no antibiotic).
FIG. 8 depicts container 800 configured for use to assess susceptibility of microorganisms. Container 800 includes base 802 and lid 804, with plates 806 positioned in base 802 opposite colorimetric sensor arrays 808 on lid 804. Microorganisms may be placed in contact with growth medium (e.g., a solid growth medium) in plates 806. A substance (e.g., a drug such as an antibiotic) may be added to the growth medium. In one example, rows and columns of plates 802 in container 800 may be used for different microorganisms, different substances (e.g., drugs effective to kill the microorganisms), or different concentrations of substances. After samples are loaded on plates 802, lid 804 is positioned over base 802, such that each colorimetric sensor array 808 is proximate a plate 806. Susceptibility is assessed via temporal response of the sensors in colorimetric sensor arrays. […]

The subject of assay [2] is K. pneumoniae IS-007. The conditions noted are these: cited from earlier work.
For assay [3], the system named is K. pneumoniae IS-020. The conditions noted are these: cited from earlier work.
Assay [4] deals with K. pneumoniae IS-133. The conditions noted are these: cited from earlier work.
Assay [5] concerns S. aureus IS-120. The assay can be described thus: Colorimetric sensor array antibiotic susceptibility test on solid growth media. The class given is cell-based.
Text: as §1
(§2) FIG. 8 depicts container 800 configured for use to assess susceptibility of microorganisms. Container 800 includes base 802 and lid 804, with plates 806 positioned in base 802 opposite colorimetric sensor arrays 808 on lid 804. Microorganisms may be placed in contact with growth medium (e.g., a solid growth medium) in plates 806. A substance (e.g., a drug such as an antibiotic) may be added to the growth medium. In one example, rows and columns of plates 802 in container 800 may be used for different microorganisms, different substances (e.g., drugs effective to kill the microorganisms), or different concentrations of substances. After samples are loaded on plates 802, lid 804 is positioned over base 802, such that each colorimetric sensor array 808 is proximate a plate 806. Susceptibility is assessed via temporal response of the sensors in colorimetric sensor arrays. Container 800 can be positioned in an apparatus (e.g., apparatus 700) for automated assessment of susceptibility.
(§3) Susceptibility is indicated by a lack of metabolic products compared to controls (no antibiotic).
(§4) In another susceptibility test, three strains of S. aureus were inoculated onto the solid growth media. […] S. aureus IS-124 was susceptible to both antibiotics in agreement with known susceptibility information that this strain is susceptible to Oxacillin and Vancomycin.

For assay [6], the system named is S. aureus IS-123. Described as above. The class given is cell-based.
Text: as §1, §2, §3, §4

Assay [7] has as its system S. aureus IS-120. The conditions noted are these: cited from earlier work.
Assay [8] relates to S. aureus IS-123. The conditions noted are these: cited from earlier work.
In assay [9] the test system is S. aureus IS-124. The conditions noted are these: concentration not given; cited from earlier work.
[10] abbreviates: antibiotic at 2 ug/ml in solid growth media.
The mark [11] stands for this setting: antibiotic at 1-2 ug/ml in solid growth media.

For `CO/N=C(\C(=O)N[C@@H]1C(=O)N2C(C(=O)[O-])=C(C[N+]3(C)CCCC3)CS[C@H]12)c1csc(N)n1` [Cefepime], the “susceptibility or resistance of the strain to the antibiotic” value (“susceptibility or resistance” below) in assay [1] (antibiotic at 8 ug/ml in solid growth media) is on record as “resistance”. Moreover, in assay [2], the “concentration at which the strain is susceptible (known susceptibility information)” value was less than 0.25 µg/mL and the “concentration below which the strain is resistant (known susceptibility information)” value was “below 64 ug/ml”. In [3], the “concentration at which the strain is susceptible (known susceptibility information)” value is less than 1 µg/mL. For the same compound, the “concentration below which the strain is resistant (known)” value in assay [4] is given as “below 64 ug/ml”.
`C[C@@H](O)[C@H]1C(=O)N2C(C(=O)O)=C(S[C@@H]3CN[C@H](C(=O)N(C)C)C3)[C@H](C)[C@H]12` [Meropenem]: the “susceptibility or resistance” value in assay [1] (antibiotic at 1 ug/ml in solid growth media) is listed as “susceptibility”. The “concentration at which the strain is susceptible (known susceptibility information)” value in assay [3] was less than 0.25 µg/mL. Further, in assay [4], the “concentration below which the strain is resistant (known)” value is on record as “below 16 ug/ml”.
Turning to `Cc1onc(-c2ccccc2)c1C(=O)N[C@@H]1C(=O)N2[C@@H]1SC(C)(C)[C@@H]2C(=O)O` [Oxacillin], the “susceptibility or resistance” value in assay [5] (setting [10]) and in assay [6] (setting [10]) was “resistance” in each case. Moreover, the “concentration below which the strain is resistant (known susceptibility information)” value in assay [7] and in [8] was “below 4 ug/ml” throughout. Also, the “known susceptibility of the strain to the antibiotic” value in assay [9] is on record as “susceptible”.
Consider `CN[C@H](CC(C)C)C(=O)N[C@H]1C(=O)N[C@@H](CC(N)=O)C(=O)N[C@H]2C(=O)N[C@H]3C(=O)N[C@H](C(=O)N[C@H](C(=O)O)c4cc(O)cc(O)c4-c4cc3ccc4O)[C@H](O)c3ccc(c(Cl)c3)Oc3cc2cc(c3O[C@@H]2O[C@H](CO)[C@@H](O)[C@H](O)[C@H]2O[C@H]2C[C@](C)(N)[C@H](O)[C@H](C)O2)Oc2ccc(cc2Cl)[C@H]1O` [Vancomycin], for which the “susceptibility or resistance” value in assay [5] (setting [11]) and in [6] (setting [11]) was “susceptibility” each time. Moreover, the “known susceptibility of the strain to the antibiotic” value in [7] (concentration not given), in assay [8] (concentration not given) and in assay [9] was “susceptible” in each case.
